Where only a bound is given, the exact number is not on record here.

One test deals with T1, Human HDAC8 (Homo sapiens, UniProt Q9BY41).
T1 construct: full length with C-terminal His tag, MW=42.6 kDa; His (C); host or cells: baculovirus expression system
T1 sequence (Q9BY41 1-377): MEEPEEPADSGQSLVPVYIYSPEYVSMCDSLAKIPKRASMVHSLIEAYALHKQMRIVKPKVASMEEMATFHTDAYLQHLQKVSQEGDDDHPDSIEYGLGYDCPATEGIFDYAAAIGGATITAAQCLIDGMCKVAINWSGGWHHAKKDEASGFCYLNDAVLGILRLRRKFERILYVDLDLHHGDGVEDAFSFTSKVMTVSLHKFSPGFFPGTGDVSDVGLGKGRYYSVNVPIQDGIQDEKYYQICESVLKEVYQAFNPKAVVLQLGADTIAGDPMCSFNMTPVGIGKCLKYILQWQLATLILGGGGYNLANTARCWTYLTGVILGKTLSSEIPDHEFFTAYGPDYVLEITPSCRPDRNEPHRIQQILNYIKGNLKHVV
As to the kind of experiment: HDAC8 biochemical assay, AMC-labeled peptide substrate. The note with it: read-out: HDAC Isoform IC50 (nM) 8. A digest of the protocol: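 Two-step fluorogenic readout: compounds and enzyme deacetylate 100 µM RHK(Ac)K(Ac)AMC for 2 h at 30° C (pH8.0 Tris buffer, BSA, 1% DMSO final), then developer releases AMC, read at 360/460 Ex/Em. Enzyme: 1 ng/ul full-length His-tagged human HDAC8 from baculovirus.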

For test [1], the target named is T2, Complex of human HDAC3 and human NCOR2 (Homo sapiens, UniProt O15379).
T2 construct: full length with C-terminal His tag, MW=49.7 kDa; His (C); host or cells: baculovirus expression system (co-expressed)
T2 sequence (O15379 whole entry): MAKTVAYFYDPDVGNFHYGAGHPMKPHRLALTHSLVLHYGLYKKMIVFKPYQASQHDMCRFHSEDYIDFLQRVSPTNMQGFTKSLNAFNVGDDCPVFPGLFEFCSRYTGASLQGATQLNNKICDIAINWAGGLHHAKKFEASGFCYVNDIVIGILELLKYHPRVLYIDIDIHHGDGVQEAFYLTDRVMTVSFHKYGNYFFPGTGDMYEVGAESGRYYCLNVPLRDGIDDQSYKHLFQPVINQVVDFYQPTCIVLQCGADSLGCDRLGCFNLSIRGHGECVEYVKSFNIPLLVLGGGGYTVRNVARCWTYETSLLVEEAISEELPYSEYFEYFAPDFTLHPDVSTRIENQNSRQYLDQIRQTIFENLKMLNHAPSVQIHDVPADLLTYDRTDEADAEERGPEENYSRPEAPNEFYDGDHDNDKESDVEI
T2 sequence (Q9Y618 395-489 partner limits assumed): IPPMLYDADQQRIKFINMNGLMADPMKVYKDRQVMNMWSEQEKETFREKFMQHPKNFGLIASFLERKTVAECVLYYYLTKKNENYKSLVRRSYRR
The experiment in a line: HDAC3 biochemical assay, AMC-labeled peptide substrate. The note with it: read-out: HDAC Isoform IC50 (nM) 3. In a few lines:
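Two-stage fluorogenic read: compounds incubated 1 h at 30° C with 50 μM RHKK(Ac)AMC and 0.1 ng/ul HDAC3–NCOR2(395-489) complex (Tris pH8.0, NaCl, KCl, MgCl2, BSA, 1% DMSO). Developer digestion of deacetylated product gives signal at Ex 360/Em 460.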

The next test has as its target T3, Human HDAC4 (Homo sapiens, UniProt P56524).
T3 construct: amino acids 627-1085 with N-terminal GST tag; GST (N); host or cells: baculovirus expression system
As to the kind of experiment: HDAC4 biochemical assay, class IIa-specific substrate. The note with it: read-out: HDAC Isoform IC50 (nM) 4. A digest of the protocol: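 Two-step fluorogenic read-out: deacetylated BOC-Lys(trifluoroacetyl)-AMC (50 μM) was digested by developer and measured at Ex/Em 360/460. Deacetylation by 0.004 ng/ul HDAC4 (aa 627-1085, N-terminal GST) ran 30 min at room temperature, pH 8.0 Tris buffer, 1 mg/mL BSA, 1% DMSO.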

The target in the next test is T4, Human HDAC5 (Homo sapiens, UniProt Q9UQL6).
T4 construct: full length with C-terminal His tag, MW=51.1 kDa; His (C); host or cells: baculovirus expression system
T4 sequence (Q9UQL6 656-1122 limits assumed): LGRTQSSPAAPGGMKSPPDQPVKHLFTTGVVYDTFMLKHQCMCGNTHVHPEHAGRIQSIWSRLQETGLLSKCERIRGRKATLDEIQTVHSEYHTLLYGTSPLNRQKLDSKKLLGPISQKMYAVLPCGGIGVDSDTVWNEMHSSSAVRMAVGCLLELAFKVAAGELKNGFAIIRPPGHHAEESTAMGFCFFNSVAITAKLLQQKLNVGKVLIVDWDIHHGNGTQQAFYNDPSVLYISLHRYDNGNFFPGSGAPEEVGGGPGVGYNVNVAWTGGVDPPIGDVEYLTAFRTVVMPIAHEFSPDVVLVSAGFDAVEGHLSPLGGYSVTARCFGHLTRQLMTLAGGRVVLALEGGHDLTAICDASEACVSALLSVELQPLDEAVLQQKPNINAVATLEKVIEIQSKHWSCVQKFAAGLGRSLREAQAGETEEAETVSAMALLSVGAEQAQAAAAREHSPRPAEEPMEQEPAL
The experiment in a line: HDAC5 biochemical assay, class IIa-specific substrate. The note with it: read-out: HDAC Isoform IC50 (nM) 5. In a few lines:
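Two-step fluorogenic read-out: deacetylated trifluoroacetyl-lysine AMC substrate (50 μM) digested by developer, measured at Ex/Em 360/460. Deacetylation step: 0.05 ng/ul His-tagged full-length baculoviral enzyme with compound, 30 min, room temperature, pH 8.0 Tris with 1 mg/mL BSA and 1% DMSO.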

T3 sequence (P56524 627-1084 limits assumed): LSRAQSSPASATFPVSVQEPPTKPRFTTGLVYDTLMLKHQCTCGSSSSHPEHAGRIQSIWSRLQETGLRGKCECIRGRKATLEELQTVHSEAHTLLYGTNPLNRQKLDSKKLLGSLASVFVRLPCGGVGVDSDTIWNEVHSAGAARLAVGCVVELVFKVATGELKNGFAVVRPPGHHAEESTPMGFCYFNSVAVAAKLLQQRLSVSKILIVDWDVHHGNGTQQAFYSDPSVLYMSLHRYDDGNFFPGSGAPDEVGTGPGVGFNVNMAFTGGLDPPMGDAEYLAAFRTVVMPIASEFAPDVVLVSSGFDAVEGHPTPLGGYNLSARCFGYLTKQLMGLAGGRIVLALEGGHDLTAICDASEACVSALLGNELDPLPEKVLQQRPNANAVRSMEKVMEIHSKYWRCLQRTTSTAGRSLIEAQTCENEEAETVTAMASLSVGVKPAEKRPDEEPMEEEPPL

For orientation: IC50 means the concentration that inhibits the measured activity by half. Take `FC(F)(F)c1nc(-c2ccc(CN(c3ccncn3)c3cnccn3)s2)no1` [Example BZ, N-(Pyrazin-2-yl)-N-({5-[5-(trifluoromethyl)-1,2,4-oxadiazol-3-yl]thiophen-2-yl}methyl)pyrimidin-4-amine]: the IC50 is at most 10000 nM at Human HDAC8, over 10000 nM in test [1], at most 500 nM at Human HDAC4 and at most 500 nM on Human HDAC5.
As to `CS(=O)(=O)c1nccc(N(Cc2ccc(-c3noc(C(F)(F)F)n3)s2)c2cnccn2)n1` [Example CE, 2-Methanesulfonyl-N-(pyrazin-2-yl)-N-({5-[5-(trifluoromethyl)-1,2,4-oxadiazol-3-yl]thiophen-2-yl}methyl)pyrimidin-4-amine], the IC50 was at most 10000 nM on Human HDAC4 and at most 1000 nM at Human HDAC5.
As to `FC(F)(F)c1nc(-c2ccc(CN(c3cncnc3)c3cnccn3)s2)no1` [Example CR, N-(Pyrazin-2-yl)-N-({5-[5-(trifluoromethyl)-1,2,4-oxadiazol-3-yl]thiophen-2-yl}methyl)pyrimidin-5-amine], the IC50 at Human HDAC8 is at most 10000 nM; in test [1] it was over 10000 nM; at Human HDAC4, at most 500 nM; at Human HDAC5, at most 500 nM.
`FC(F)(F)c1ccc(N(Cc2ccc(-c3noc(C(F)(F)F)n3)s2)c2cnccn2)nn1` [Example DH, N-(Pyrazin-2-yl)-6-(trifluoromethyl)-N-({5-[5-(trifluoromethyl)-1,2,4-oxadiazol-3-yl]thiophen-2-yl}methyl)pyridazin-3-amine]: the IC50 on Human HDAC8 is at most 10000 nM; in test [1] it was at most 10000 nM; at Human HDAC4, at most 1000 nM; at Human HDAC5, at most 1000 nM.
Consider `FC(F)(F)c1nc(-c2ccc(CN(c3cnccn3)c3ccc(N4CCCC4)nn3)s2)no1` [Example DI, N-(Pyrazin-2-yl)-6-(pyrrolidin-1-yl)-N-({5-[5-(trifluoromethyl)-1,2,4-oxadiazol-3-yl]thiophen-2-yl}methyl)pyridazin-3-amine], for which the IC50 is at most 10000 nM on Human HDAC8, at most 10000 nM in test [1], at most 1000 nM on Human HDAC4 and at most 1000 nM at Human HDAC5.
Take `CS(=O)(=O)c1ccc(N(Cc2ccc(-c3noc(C(F)(F)F)n3)s2)c2cnccn2)nn1` [Example DL, 6-Methanesulfonyl-N-(pyrazin-2-yl)-N-({5-[5-(trifluoromethyl)-1,2,4-oxadiazol-3-yl]thiophen-2-yl}methyl)pyridazin-3-amine]: the IC50 at Human HDAC8 is at most 10000 nM; in test [1] it was over 10000 nM; on Human HDAC4, at most 500 nM; at Human HDAC5, at most 500 nM.
With `FC(F)(F)c1nc(-c2ccc(CN(c3ccccn3)c3cnccn3)s2)no1` [Example V, N-(Pyridin-2-yl)-N-({5-[5-(trifluoromethyl)-1,2,4-oxadiazol-3-yl]thiophen-2-yl}methyl)pyrazin-2-amine], the IC50 at Human HDAC8 was over 10000 nM; in test [1] it was over 10000 nM; at Human HDAC4, at most 10000 nM; on Human HDAC5, at most 10000 nM.

Values taken from patent US20210038607A1, “OXADIAZOLYLTHIOPHENE DERIVATIVES USEFUL AS HISTONE DEACETYLASE INHIBITORS” (Karus Therapeutics Limited, priority 2018, published 2021).
